Results published in the supplement of paper PMC10627819.

How the values were obtained:
[1] = tested on: S. aureus DSM 20231; test: fitness (endpoint OD595 vs no drug) (fraction); higher = more growth
Procedure, shortened: (§1)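 Bacterial growth was followed in 384-well plates seeded at OD595 0.01, with 30 µl per well, or 55 µl for S. pneumoniae, in TSB, LB Lennox or CY at 37 °C. OD595 was read every 30 min for 14 h, and each reading had the first reading subtracted as background. Fitness is the background-corrected optical density at entry into stationary phase divided by the robust mean of the no-drug control wells. This ratio is capped at 1.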

[2] = tested on: S. aureus Newman; test: as above
Procedure, shortened: as §1

[3] = tested on: S. pneumoniae D39V; test: as above
Procedure, shortened: as §1

[4] = tested on: B. subtilis 168; test: Bliss interaction score (quartile over a dose matrix) (fitness difference); higher = more antagonism (negative = synergy)
Procedure, shortened: (§2)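 Combination data were used to infer fitness under each single drug. Fitness is the OD595 at entry into stationary phase divided by the robust mean of the plate's no-drug wells, with a cap of 1. The Bliss score is the observed minus the expected product fitness, summarised by quartiles over technical, biological and donor/recipient replicates.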

[5] = tested on: S. aureus DSM 20231; test: as above
Procedure, shortened: as §2

[6] = tested on: S. aureus Newman; test: as above
Procedure, shortened: as §2

[7] = tested on: S. pneumoniae D39V; test: as above
Procedure, shortened: as §2

[8] = tested on: B. subtilis 168; test: fitness (endpoint OD595 vs no drug) (fraction); higher = more growth
Procedure, shortened: as §1
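Throughout, for Bliss interaction score (quartile over a dose matrix): first quartile when negative (synergy) and third quartile when positive (antagonism).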

CO/N=C(\C(=O)N[C@@H]1C(=O)N2C(C(=O)[O-])=C(C[N+]3(C)CCCC3)CS[C@H]12)c1csc(N)n1 [Cefepime] + Cc1onc(-c2ccccc2)c1C(=O)N[C@@H]1C(=O)N2[C@@H]1SC(C)(C)[C@@H]2C(=O)O [Oxacillin]
Conditions | fitness
[1], first compound 0.125 µg/mL, partner 0.0156 µg/mL | 0.75
[1], first compound 0.125 µg/mL, partner 0.0312 µg/mL | 0.641
[1], first compound 0.125 µg/mL, partner 0.0625 µg/mL | 0.507
[1], first compound 0.25 µg/mL, partner 0.0156 µg/mL | 0.826
[1], first compound 0.25 µg/mL, partner 0.0312 µg/mL | 0.634
[1], first compound 0.25 µg/mL, partner 0.0625 µg/mL | 0.578
[1], first compound 0.5 µg/mL, partner 0.0156 µg/mL | 0.624
[1], first compound 0.5 µg/mL, partner 0.0312 µg/mL | 0.565
[1], first compound 0.5 µg/mL, partner 0.0625 µg/mL | 0.53
[2], first compound 0.125 µg/mL, partner 0.0156 µg/mL | 0.828
[2], first compound 0.125 µg/mL, partner 0.0312 µg/mL | 0.796
[2], first compound 0.125 µg/mL, partner 0.0625 µg/mL | 0.71
[2], first compound 0.25 µg/mL, partner 0.0156 µg/mL | 0.804
[2], first compound 0.25 µg/mL, partner 0.0312 µg/mL | 0.753
[2], first compound 0.25 µg/mL, partner 0.0625 µg/mL | 0.682
[2], first compound 0.5 µg/mL, partner 0.0156 µg/mL | 0.768
[2], first compound 0.5 µg/mL, partner 0.0312 µg/mL | 0.684
[2], first compound 0.5 µg/mL, partner 0.0625 µg/mL | 0.667
[3], first compound 0.007 µg/mL, partner 0.005 µg/mL | 0.997
[3], first compound 0.007 µg/mL, partner 0.01 µg/mL | ≥ 1
[3], first compound 0.007 µg/mL, partner 0.02 µg/mL | 0.986
[3], first compound 0.0078 µg/mL, partner 0.01 µg/mL | 0.95
[3], first compound 0.0078 µg/mL, partner 0.02 µg/mL | 0.825
[3], first compound 0.0078 µg/mL, partner 0.04 µg/mL | 0.254
[3], first compound 0.014 µg/mL, partner 0.005 µg/mL | ≥ 1
[3], first compound 0.014 µg/mL, partner 0.01 µg/mL | ≥ 1
[3], first compound 0.014 µg/mL, partner 0.02 µg/mL | 1
[3], first compound 0.0155 µg/mL, partner 0.01 µg/mL | 0.86
[3], first compound 0.0155 µg/mL, partner 0.04 µg/mL | 0.153
[3], first compound 0.028 µg/mL, partner 0.005 µg/mL | 0.955
[3], first compound 0.028 µg/mL, partner 0.01 µg/mL | 0.942
[3], first compound 0.028 µg/mL, partner 0.02 µg/mL | 0.847
[3], first compound 0.031 µg/mL, partner 0.04 µg/mL | 0.0453

Conditions | Bliss interaction score
[4] | -0.0609
[5] | -0.054
[6] | 0.11
[7] | -0.138

CO/N=C(\C(=O)N[C@@H]1C(=O)N2C(C(=O)[O-])=C(C[N+]3(C)CCCC3)CS[C@H]12)c1csc(N)n1 [Cefepime] + Cn1nnc(-c2ccc(-c3ccc(N4C[C@H](CO)OC4=O)cc3F)cn2)n1 [Tedizolid]
fitness
Conditions | partner 0.03125 µg/mL | partner 0.0625 µg/mL | partner 0.125 µg/mL | partner 0.25 µg/mL | partner 0.5 µg/mL
[1], first compound 0.125 µg/mL | – | 0.879 | 0.804 | 0.692 | –
[1], first compound 0.25 µg/mL | – | 0.796 | 0.738 | 0.601 | –
[1], first compound 0.5 µg/mL | – | 0.844 | 0.797 | 0.69 | –
[2], first compound 0.125 µg/mL | – | 0.858 | 0.837 | – | –
[2], first compound 0.25 µg/mL | – | 0.81 | 0.773 | – | –
[2], first compound 0.5 µg/mL | – | 0.728 | 0.717 | – | –
[3], first compound 0.007 µg/mL | – | – | 0.953 | 0.642 | 0.129
[3], first compound 0.0078 µg/mL | 0.986 | 0.983 | 0.879 | – | –
[3], first compound 0.014 µg/mL | – | – | 0.95 | 0.626 | 0.149
[3], first compound 0.0155 µg/mL | 0.969 | 0.974 | 0.895 | – | –
[3], first compound 0.028 µg/mL | – | – | 0.937 | 0.652 | 0.105
[3], first compound 0.031 µg/mL | 0.971 | 0.948 | 0.888 | – | –

Conditions | Bliss interaction score
[4] | 0.12
[5] | 0.122
[6] | -0.0634
[7] | 0.237

CCCCCCCCCC(=O)N[C@@H](Cc1c[nH]c2ccccc12)C(=O)N[C@H](CC(N)=O)C(=O)N[C@@H](CC(=O)O)C(=O)N[C@@H]1C(=O)NCC(=O)N[C@@H](CCCN)C(=O)N[C@@H](CC(=O)O)C(=O)N[C@H](C)C(=O)N[C@@H](CC(=O)O)C(=O)NCC(=O)N[C@H](CO)C(=O)N[C@@H]([C@H](C)CC(=O)O)C(=O)N[C@@H](CC(=O)c2ccccc2N)C(=O)O[C@@H]1C [Daptomycin] + CC1=C\[C@@H](O)CC(=O)Cc2nc(co2)C(=O)N2CCC=C2C(=O)O[C@H](C(C)C)[C@H](C)/C=C/C(=O)NC\C=C\1 [Virginiamycin M1]
fitness
Conditions | first compound 0.125 µg/mL | first compound 0.25 µg/mL | first compound 0.5 µg/mL | first compound 1 µg/mL | first compound 2 µg/mL | first compound 4 µg/mL
[1], partner 0.0625 µg/mL | – | – | ≥ 1 | ≥ 1 | 0.966 | –
[1], partner 0.125 µg/mL | – | – | ≥ 1 | ≥ 1 | 0.959 | –
[1], partner 0.25 µg/mL | 0.944 | 0.918 | ≥ 1 | ≥ 1 | 0.972 | –
[2], partner 0.0625 µg/mL | ≥ 1 | ≥ 1 | 0.981 | – | – | –
[2], partner 0.125 µg/mL | ≥ 1 | ≥ 1 | 0.994 | – | – | –
[2], partner 0.25 µg/mL | 0.984 | 0.999 | 0.975 | – | – | –
[3], partner 0.5 µg/mL | – | – | – | 0.991 | 0.984 | 0.976
[3], partner 1 µg/mL | – | – | – | 0.992 | ≥ 1 | 0.997
[3], partner 2 µg/mL | – | – | – | 0.909 | 0.927 | 0.919
[8], partner 0.0625 µg/mL | 0.946 | 0.924 | 0.894 | – | – | –
[8], partner 0.125 µg/mL | 0.92 | 0.931 | 0.862 | – | – | –
[8], partner 0.25 µg/mL | 0.93 | 0.934 | 0.891 | – | – | –

one replicate
Conditions | fitness
[1], first compound 0.125 µg/mL, partner 0.0625 µg/mL | 0.898
[1], first compound 0.125 µg/mL, partner 0.125 µg/mL | ≥ 1
[1], first compound 0.125 µg/mL, partner 0.5 µg/mL | 0.906
[1], first compound 0.125 µg/mL, partner 1 µg/mL | 0.887
[1], first compound 0.25 µg/mL, partner 0.0625 µg/mL | 0.855
[1], first compound 0.25 µg/mL, partner 0.125 µg/mL | ≥ 1
[1], first compound 0.25 µg/mL, partner 0.5 µg/mL | 0.92
[1], first compound 0.25 µg/mL, partner 1 µg/mL | 0.838
[1], first compound 0.5 µg/mL, partner 0.5 µg/mL | 0.908
[1], first compound 0.5 µg/mL, partner 1 µg/mL | 0.848
[2], first compound 0.5 µg/mL, partner 0.5 µg/mL | 0.894
[2], first compound 0.5 µg/mL, partner 1 µg/mL | ≥ 1
[2], first compound 0.5 µg/mL, partner 2 µg/mL | 0.882
[2], first compound 1 µg/mL, partner 0.5 µg/mL | 0.864
[2], first compound 1 µg/mL, partner 1 µg/mL | 0.948
[2], first compound 1 µg/mL, partner 2 µg/mL | 0.875
[2], first compound 2 µg/mL, partner 0.5 µg/mL | 0.921
[2], first compound 2 µg/mL, partner 1 µg/mL | 0.989
[2], first compound 2 µg/mL, partner 2 µg/mL | 0.856
[3], first compound 1 µg/mL, partner 0.15 µg/mL | 0.892
[3], first compound 1 µg/mL, partner 0.3 µg/mL | 0.754
[3], first compound 2 µg/mL, partner 0.15 µg/mL | 0.893
[3], first compound 2 µg/mL, partner 0.3 µg/mL | 0.84
[3], first compound 4 µg/mL, partner 0.15 µg/mL | 0.924
[3], first compound 4 µg/mL, partner 0.3 µg/mL | 0.877
[8], first compound 1 µg/mL, partner 0.0625 µg/mL | 0.702
[8], first compound 1 µg/mL, partner 0.125 µg/mL | 0.698
[8], first compound 1 µg/mL, partner 0.25 µg/mL | 0.765

Conditions | Bliss interaction score
[4] | -0.0543
[5] | 0.0655
[6] | 0.0243
[7] | 0.0768

CCCCCCCCCC(=O)N[C@@H](Cc1c[nH]c2ccccc12)C(=O)N[C@H](CC(N)=O)C(=O)N[C@@H](CC(=O)O)C(=O)N[C@@H]1C(=O)NCC(=O)N[C@@H](CCCN)C(=O)N[C@@H](CC(=O)O)C(=O)N[C@H](C)C(=O)N[C@@H](CC(=O)O)C(=O)NCC(=O)N[C@H](CO)C(=O)N[C@@H]([C@H](C)CC(=O)O)C(=O)N[C@@H](CC(=O)c2ccccc2N)C(=O)O[C@@H]1C [Daptomycin] + CCN(CC)CCOC(=O)c1ccc(N)cc1 [Procaine]
fitness
Conditions | first compound 0.125 µg/mL | first compound 0.25 µg/mL | first compound 0.5 µg/mL | first compound 1 µg/mL | first compound 2 µg/mL | first compound 4 µg/mL
[1], partner 85.5 µg/mL | 0.912 | 0.913 | 0.931 | 0.956 | 0.774 | –
[1], partner 171 µg/mL | ≥ 1 | ≥ 1 | ≥ 1 | 0.873 | 0.822 | –
[1], partner 342 µg/mL | 0.995 | 0.989 | ≥ 1 | 0.953 | 0.808 | –
[2], partner 85.5 µg/mL | ≥ 1 | ≥ 1 | ≥ 1 | – | – | –
[2], partner 171 µg/mL | 0.984 | ≥ 1 | ≥ 1 | – | – | –
[2], partner 342 µg/mL | 0.989 | 0.98 | ≥ 1 | – | – | –
[3], partner 85.5 µg/mL | – | – | – | 0.994 | 0.961 | 0.945
[3], partner 171 µg/mL | – | – | – | 0.98 | 0.97 | 0.951
[3], partner 342 µg/mL | – | – | – | 0.942 | 0.906 | 0.893
[8], partner 85.5 µg/mL | 0.873 | 0.946 | 0.864 | – | – | –
[8], partner 171 µg/mL | 0.9 | 0.898 | 0.799 | – | – | –
[8], partner 342 µg/mL | 0.874 | 0.836 | 0.854 | – | – | –

[8], first compound 1 µg/mL, one replicate
Conditions | fitness
partner 85.5 µg/mL | 0.717
partner 171 µg/mL | 0.685
partner 342 µg/mL | 0.682

Conditions | Bliss interaction score
[4] | -0.0699
[5] | 0.0381
[6] | 0.0445
[7] | 0.0859
